From patent US8859021B2, “Skin appearance through gene manipulation” (Sytheon, priority 2007, dated 2014)
Like-named read-outs stand apart in the source and are kept apart here.

Tested on: EpiDerm tissues
Conditions: retinol 10 μg/ml, Sytenol A 5 μg/ml, 2 days, vs 0.1% DMSO control

CC1=C(/C=C/C(C)=C/C=C/C(C)=C/CO)C(C)(C)CCC1 [Retinol, retinol]
Fold Change, ACTN1 Alpha-actinin-1 (Alpha-actinin cytoskeletal isoform) (Table 8): +3.11 fold | Fold Change, ACTN1 Alpha-actinin-1 (Alpha-actinin cytoskeletal isoform) (Table 9): +3.11 fold | Fold Change, ACTN4 Alpha-actinin-4(F-actin cross-linking protein) (Table 8): +2.99 fold | Fold Change, ACTN4 Alpha-actinin-4(F-actin cross-linking protein) (Table 9): +2.99 fold | Fold Change, AFAP1L2 Actin filament-associated protein 1-like 2: +2.84 fold | Fold Change, C16orf30 Claudin-like protein 24: −2.23 fold | Fold Change, CDH1 Epithelia-cadherin precursor (E-cadherin) (Table 7): +9.39 fold | Fold Change, CDH1 Epithelial-cadherin precursor (E-cadherin) E-Cad/CTF1 (Table 9): +9.39 fold | Fold Change, CDH3 Cadherin-3-precursor (P-cadherin): +3.99 fold | Fold Change, CDH19 Cadherin-19-precursor: −4.11 fold | Fold Change, CDH24 Cadherin-24-precursor: +2.06 fold | Fold Change, CDK5R1 Tau protein kinase II 23 kDa subunit (Cyclin-dependent kinase 5 activator 1 precursor (CDK5 activator 1)): +2.17 fold | Fold Change, CLDN4 Claudin-4 (Clostridium perfringens enterotoxin receptor) (CPE-R): +3.63 fold | Fold Change, CLDN5 Claudin-5 (Transmembrane protein deleted in VCFS): −3.66 fold | Fold Change, CLDN6 Claudin-6 (Skullin 2): +2.59 fold | Fold Change, CLDN7 Claudin-7 (CLDN-7): +25.30 fold | Fold Change, CLDN11 Claudin-11 (Oligodendrocyte-specific protein): −2.86 fold | Fold Change, CLDN12 Claudin-12: +3.73 fold | Fold Change, CLDN16 Claudin-16 (Paracellin-1) (PCLN-1): +7.79 fold | Fold Change, COL1A2 Collagen alpha-2 (I) chain precursor (Alpa-2 type I collagen): +3.31 fold | Fold Change, COL3A1 Collagen alpha-1 (III) chain precursor: −2.36 fold | Fold Change, COL4A6 Collagen alpha-6 (IV) chain precursor: +6.41 fold | Fold Change, COL9A2 Collagen alpha-2 (IX) chain precursor: +5.56 fold | Fold Change, COL9A3 Collagen alpha-3 (IX) chain precursor: +4.05 fold | Fold Change, COL17A1 Collagen alpha-1 (XVII) chain precursor: +3.5 fold | Fold Change, CRABP1 Cellular retinoic acid-binding protein 1: +2.83 fold | Fold Change, CTHRC1 Collagen triple helix repeat-containing protein 1 precursor: −18.94 fold | Fold Change, CTNNAL1 Alpha-catenin-related protein (ACRP) (Table 8): −2.60 fold | Fold Change, CTNNAL1 Alpha-catenin-related protein (ACRP) (Table 9): −2.04 fold | Fold Change, CYP26B1 Cytochrome P450 26B1 (Retinoic acid-metabolizing cytochrome): +1.87 fold | Fold Change, Connective tissue growth factor precursor (Hypertrophic chondrocyte-specific protein 24): −4.61 fold | Fold Change, DHRS9 NADP-dependent retinol dehydrogenase/reductase: +5.48 fold | Fold Change, DSC1 Desmocollin-1-precursor (DG2/DG3): −7.49 fold | Fold Change, DSC2 Desmocollin-2-precursor (Desmocollin-3): +3.71 fold | Fold Change, DSG1 Desmoglein-1-precursor (DG1): −2.30 fold | Fold Change, DSG2 Desmoglein-2-precursor: +13.03 fold | Fold Change, DSG3 Desmoglein-3-precursor: +2.35 fold | Fold Change, DSG4 Desmoglein-4-precursor: No effect | Fold Change, ECM1 Extracellular matrix protein 1 precursor: No effect | Fold Change, ECM2 Extracellular matrix protein 2 precursor: +4.98 fold | Fold Change, ELA3B Elastase-3B precursor (Elastase IIIB): +5.89 fold | Fold Change, F11R Junctional adhesion molecule 1 (JAM-1): +5.77 fold | Fold Change, FLNB Actin-binding-like protein: +3.89 fold | Fold Change, FLRT2 Fibronectin-like-domain-containing leucine-rich transmembrane protein 2: −2.67 fold | Fold Change, FLRT3 Fibronectin-like-domain-containing leucine-rich transmembrane protein 3: +2.77 fold | Fold Change, FNDC7 Fibronectin type III domain containing 7: No effect | Fold Change, Fibroblast growth factor 9 (HBGF-9): −12.36 fold | Fold Change, Fibroblast growth factor 23 precursor (FGF-23) (Tumor-derived hypophosphatemia-inducing factor): −9.78 fold | Fold Change, Fibroblast growth factor receptor 2 precursor (FGFR-2): +6.50 fold | Fold Change, Fibroblast growth factor-binding protein 1 precursor (FGF-BP1): +3.51 fold | Fold Change, GSN Gelsolin precursor (Actin-depolymerizing factor) (ADF): +3.47 fold | Fold Change, HAS2 Hyaluronan synthase 2: −3.48 fold | Fold Change, HAS3 Hyaluronan synthase 3: +10.88 fold | Fold Change, HS3ST1 Heparan sulfate 3-O-sulfotransferase 1 (Table 6): +8.65 fold | Fold Change, HS3ST1 Heparan sulfate glucosamine 3-O-sulfotransferase 1 precursor (Heparan sulfate 3-O-sulfotransferase 1) (Table 3): +8.65 fold | Fold Change, HS6ST1 Heparan sulfate 6-O-sulfotransferase 1: +2.26 fold | Fold Change, HYAL1 Hyaluronidase-1-precursor: +2.16 fold | Fold Change, Heparin-binding EGF-like growth factor precursor (HB-EGF): +3.89 fold | Fold Change, IGSF1 Immunoglobulin superfamily, member 1 isoform 1: +3.11 fold | Fold Change, IGSF3 Immunoglobulin superfamily, member 3 isoform 2: +5.81 fold | Fold Change, ITG5 Integrin beta-5 precursor (Table 7): −2.42 fold | Fold Change, ITGA6 Integrin alpha-6 precursor: No effect | Fold Change, ITGA7 Integrin alpha-7 precursor: −5.53 fold | Fold Change, ITGB2 Integrin beta-2-precursor: −3.54 fold | Fold Change, ITGB4 Integrin beta-4-precursor (Table 3): +3.48 fold | Fold Change, ITGB4 Integrin beta-4 precursor (Table 7): +3.48 fold | Fold Change, ITGB5 Integrin beta-5 precursor (Table 3): −2.42 fold | Fold Change, ITGB6 Integrin beta-6-precursor (Table 3): +7.49 fold | Fold Change, ITGB6 Integrin beta-6-precursor (Table 7): +7.49 fold | Fold Change, ITGB8 Integrin beta-8 precursor (Table 3): No effect | Fold Change, ITGB8 Integrin beta-8 precursor (Table 7): No effect | Fold Change, ITGBL1 Integrin beta-like 1: −4.38 fold | Fold Change, Insulin growth factor-like family member 3 precursor (IGBP-3): −7.11 fold | Fold Change, Insulin growth factor-like family member 4 precursor (IGBP-4): +5.97 fold | Fold Change, Insulin-like growth factor-binding protein 6 precursor (IGBP-6): +5.89 fold | Fold Change, JUP Catenin gamma (Junction plakoglobin) (Table 8): +2.43 fold | Fold Change, JUP Catenin gamma (Table 9): +2.43 fold | Fold Change, KIF1C Kinesin-like protein KIF1C: +2.47 fold | Fold Change, KIF2A Kinesin-like protein KIF2A: −3.62 fold | Fold Change, KIF4A Chromosome-associated kinesin KIF4A: +2.08 fold | Fold Change, KIF13A Kinsein-like protein KIF13A: −2.27 fold | Fold Change, KIF13B Kinsein-like protein KIF13B: +2.91 fold | Fold Change, KIF17 Kinesin-like protein KIF17: +2.18 fold | Fold Change, KIF26A Kinesin family member 26A: −2.93 fold | Fold Change, KIFC2 Kinesin-like protein KIFC2: −2.45 fold | Fold Change, KRT2 Keratin-2; Cytokeratin-2e (CK 2e): −8.37 fold | Fold Change, KRT5 Keratin-5, Cytokeratin-5 (CK-5): +2.39 fold | Fold Change, KRT7 Keratin-7; Cytokeratin-7 (CK-7): +8.75 fold | Fold Change, KRT13 Keratin-13; Cytokeratin-13 (CK-13): +14.17 fold | Fold Change, KRT15 Keratin-15; Cytokeratin-15 (CK-15): +5.48 fold | Fold Change, KRT19 Keratin-19; Cytokeratin-19 (CK-19): +11.27 fold | Fold Change, LAMA3 Laminin subunit alpha-3 precursor (Epiligrin 170 kDa subunit): +4.70 fold | Fold Change, LAMC2 Laminin subunit gamma-2 precursor (Laminin B2t chain): +2.68 fold | Fold Change, LRAT Lecithin retinol acyltransferase: +12.3 fold | Fold Change, LRRC49 Tubulin polyglutamylase complex subunit 4 (PGs4): −2.83 fold | Fold Change, MC1R, TUBB3 Tubulin beta-3-chain (Tubulin beta-III): +2.99 fold | Fold Change, MMP9 Matrix metalloprotease-9-precursor: +8.35 fold | Fold Change, MMP15 Matrix metalloprotease-15 precursor: +3.67 fold | Fold Change, MMP21 Matrix metalloprotease-21 precursor: No effect | Fold Change, MMP23A, MMP23B Matrix metalloprotease-23: −5.78 fold | Fold Change, MMP26 Matrix metalloprotease-26-precursor (MMP-26): +4.31 fold | Fold Change, MMP28 Matrix metalloprotease-28-precursor: +3.88 fold | Fold Change, MYH14 Myosin-14: +3.38 fold | Fold Change, MYL2 Myosin regulatory light chain 2: No effect | Fold Change, MYO1F Myosin-lf (Myosin-le): +6.29 fold | Fold Change, MYO6 Myosin-VI: No effect | Fold Change, Mast/stem cell growth factor receptor precursor (SCFR) (Proto-oncogene tyrosine-protein kinase kit (c-kit)): −3.36 fold | Fold Change, NDST4 N-heparan sulfate sulfotransferase 4: No effect | Fold Change, NEIL2 DNA glycosylase/AP lyase Neil2: +12.79 fold | Fold Change, NF-kappa-B-activating protein: −2.13 fold | Fold Change, NGRN, TTLL13 Tubulin tyrosine ligase-like family, member 13: +11.61 fold | Fold Change, NID2 Nidogen-2-precursor: −17.36 fold | Fold Change, NT5C1B, RDH14 Retinol dehydrogenase 14 (Alcohol dehydrogenase PAN20): −5.33 fold | Fold Change, Nuclear factor Kappa B p105 unit (NF-kappa-B) (DNA-binding factor KBF 1): −3.62 fold | Fold Change, PARP2 Poly (ADP-ribose) polymerase 2: +2.08 fold | Fold Change, PARP9 Poly (ADP-ribose) polymerase 9: +5.92 fold | Fold Change, PARP12 Poly (ADP-ribose) polymerase 12: +4.69 fold | Fold Change, PARP15 Poly (ADP-ribose) polymerase 15: +6.37 fold | Fold Change, PCDH11X Procadherin-11: +3.18 fold | Fold Change, PCDH18 Procadherin-18-precursor: −2.49 fold | Fold Change, PCDH19 Procadherin-19-precursor: −3.41 fold | Fold Change, PCDHB1 Procadherin-beta-1-precursor: No effect | Fold Change, PCDHB2 Procadherin-beta-2-precursor: No effect | Fold Change, PCDHB3 Procadherin-beta-3-precursor: −6.57 fold | Fold Change, PCDHB4 Procadherin-beta-4-precursor: −2.62 fold | Fold Change, PFN4 Profilin-4 (Profilin IV): +4.77 fold | Fold Change, PI3 Elastase-specific inhibitor: +2.45 fold | Fold Change, Protein Kinase B (RAC-alpha serine/threonine-protein kinase) (RAC-PK-alpha): −5.09 fold | Fold Change, RARB Retinoic acid receptor beta-1: +5.63 fold | Fold Change, RARG Retinoic acid receptor gama-1: +1.87 fold | Fold Change, RARRES1 Retinoic acid receptor responder protein 1: +13.25 fold | Fold Change, RBP1 Cellular Retinol-binding protein-I: +2.6 fold | Fold Change, RBP2 Cellular Retinol-binding protein-II: No effect | Fold Change, RBP7 Cellular retinoic acid-binding protein 4: No effect | Fold Change, RETSAT All-trans-retinol 13,14-reductase precursor: −2.97 fold | Fold Change, SELE E-selection precursor (Endothelial leukocyte adhesion molecule 1) (ELAM-1): −2.11 fold | Fold Change, SERPINB1 Leukocyte elastase inhibitor: +3.80 fold | Fold Change, SIR2-like protein1/NAD-dependent deacetylase sirtuin-1 (hSIRT1): −1.89 fold | Fold Change, SIR2-like protein2/NAD-dependent deacetylase sirtuin-2: +1.52 fold | Fold Change, SIR2-like protein7/NAD-dependent deacetylase sirtuin-7: +1.58 fold | Fold Change, SRRM1 Serine/arginine repetitive matrix protein 1 (SR-related nuclear matrix protein 160 kDa) (SRm160): +3.57 fold | Fold Change, TBCEL Tubulin-specific chaperone cofactor E-like protein (EL): +2.20 fold | Fold Change, TTBK1 Tau-tubulin kinase 1: −7.99 fold | Fold Change, TTLL1 Tubulin polyglutamylase complex subunit 3 (PGs3): +1.92 fold | Fold Change, TUBB2B Tubulin beta-2B chain: −2.56 fold | Laminins gene regulation (in words): up-regulate | Fold Change, ITGA7 Integrin alpha-7 precursor (listed as retinol): significant down-regulatory effect | Fold Change, ITGB5 Integrin beta-5 precursor (Table 3) (listed as retinol): significant down-regulatory effect | Fold Change, ITGBL1 Integrin beta-like 1 (listed as retinol): significant down-regulatory effect | Fold Change, NID2 Nidogen-2-precursor (listed as retinol): significant down-regulation
